The subject of experiment [1] is parvalbumin-positive interneurons. As to the kind of experiment: Spontaneous IPSC recordings from parvalbumin-positive interneurons in acute hippocampal slices. The conditions noted are these: bath-applied, 10 μM; acute mouse hippocampal slices, area CA1. The class given is cell-based. The method, then:
Mice were anesthetized and decapitated, after which the brain was quickly removed and placed into oxygenated, ice-cold, high-sucrose artificial cerebrospinal fluid (hsACSF), containing (in mM): 150 sucrose, 50 NaCl, 25 NaHCO3, 10 dextrose, 2.5 KCl, 1 NaH2PO4·H2O, 0.5 CaCl2), and 7 MgCl2. After 2 min in hsACSF, the brain was blocked, glued to the stage of a Vibratome (VTS1000; Leica, Bannockburn, IL), and cut into 300-μm horizontal brain slices containing hippocampus. Slices were then placed in a chamber containing ACSF (in mM: 124 NaCl, 3 KCl, 1.25 NaH2PO4·H2O, 2 MgSO4·7H2O, 26 NaHCO3, 10 dextrose, and 2 CaCl2)). […]
For recording, slices were placed in a submerged recording chamber (Warner Instruments, Hamden, CT) with oxygenated ACSF heated to 32° C. and flowing at 2-4 ml/min. […] Data were obtained using an Axopatch 1D amplifier (Axon Instruments, Foster City, CA); data were digitized at 10 kHz and recorded using a Digidata 1320A and pClamp 8.2 software (Molecular Devices, Sunnyvale, CA). […] After obtaining a stable voltage-clamp recording from a CA1 interneuron, the recording was switched to current-clamp mode and injected steps of hyperpolarizing and depolarizing current were used to determine the class of cell being recorded using published firing patterns and action potential (AP) properties (Butt et al., 2005; Flames and Marin, 2005). […]

Experiment [2] relates to C57BL/6J mice. Briefly: T-maze spontaneous alternation test (spatial working memory). The experiment is classed as in vivo, mouse. The conditions noted are these: for spatial working memory (T maze test): systemic (intraperitoneal) injection, FIG. 11 left; for T maze performance: 5 mg/kg i.p. 1 h before. The procedure: In order to acutely deplete the gut microbiota, 15-16 months old SPF males were treated via oral gavage with a mixture of antibiotics (ABX), containing Cefoxitin (Santa Cruz Biotechnology), Gentamicin (Sigma-Aldrich) Metronidazole (Sigma-Aldrich), and Vancomycin (Hikma-pharma), each 10 mg/kg in sterile 1×PBS, for three consecutive days. On the fourth day, the mice were treated with one dose of Clindamycin hydrochloride (33.3 mg/kg) (Sigma-Aldrich). Fecal microbiota transplantations (FMTs) were started 24 h later. To deplete csf1-dependent cells in vivo, including microglia, mice were provided with CSF1R-inhibitor PLX5622 (Plexxicon Inc.) mixed into AIN-76A standard chow at 1200 mg/kg (Research Diets Inc.) ad libitum. Respective controls received AIN-76A standard chow. Mice were injected with 5 mg/kg δ-valerobetaine (MCAT, Germany) 1 h before behavioral testing.
For microbiota depletion studies, SPF mice were treated with 1 mg/ml of ampicillin (Auromedics), neomycin sulfate (Fisher), streptomycin (Sigma) and 0.5 mg/ml of vancomycin (Sagent) in the drinking water for 4-5 weeks (Khosravi et al., 2014). These mice were recolonized via FMT, which was achieved by oral gavage of a faecal slurry. Recipient mice had the food removed from the cage for 2 h prior to FMT. The faecal slurry was obtained by pooling faecal pellets from 8-14 donor mice. The pellets were weighed and resuspended by vortexing for 1 min in 1 mL PBS per 300 mg of faeces. After pelleting larger particles by centrifugation at 500×g for 5 min, the supernatant was collected for FMT. Each recipient mouse received 150 μl of faecal slurry by oral gavage. The remaining slurry was stored at −80° C. for 16S rRNA sequencing. Following FMT, the cages of recipient mice were replenished with dirty bedding and fresh faecal pellets from donor mice once and twice a week, respectively. Faecal pellets for 16S rRNA sequencing were collected the day before FMT and at the end of the experiment and were stored at −80° C. for DNA extraction. For re-colonization of ABX treated mice, FMTs from 8 weeks old or 15-16 months old males were undergone. Fresh fecal pellets are collected under a sterile hood and directly thoroughly homogenized in 0.1% L-Cysteine hydrochloride monohydrate in 1×PBS in order to maintain anaerobic microbes. The homogenates were spun down for 1 min, 200 g at 4° C. and the turbid supernatant was used to orally and rectally gavage the recipient mice. The FMT was performed twice 72 h apart.
NNN-trimethyl-5-aminovalerate was dissolved in 0.9% NaCl and administered i.p. at a dose of 200 mg/kg in a volume of 10 ml/kg. As control the vehicle NaCl was injected.
Mice were tested 40 min after drug- or vehicle injection or 4 weeks after FMT. We first performed the training run for the Novel-object recognition test, followed by the T maze test and then 6 h after the training session mice were tested in the Novel object recognition test. Spatial working memory was tested using the continuous spontaneous alternation task in a T-maze as described previously (Spowart-Manning, L. et al). Briefly, animals were set into the base of a T-maze and allowed to explore a randomly assigned T-maze arm until it returned to the base arm. Subsequently, the blocked arm was opened, and the animal was allowed to explore the complete maze. Once one arm of the T-maze was entered, the other arm was blocked until the animal returned to the base arm. Then, the exit of the base arm was blocked for 5 s and the animal was allowed to explore the maze again. The experiment was stopped after 14 free choice arm entries. Arm entries were scored as alternations if an animal chose the opposing arm compared to the arm visited immediately prior to the scored instance. The Novel Object Recognition (NOR) task was applied to evaluate recognition memory as published previously (Antunes, M. & Biala, G. et al). During the habituation phase, each mouse was allowed to explore two similar objects within a total exploration time of 20 s. […]

Experimental findings from patent US20260276656A1, “GUT MICROBIOTA-RELATED METHODS FOR TREATING DEMENTIA AND AGE-DEPENDENT COGNITIVE DECLINE” (Albert-Ludwigs-Universitat Freiburg, priority 2019, published 2026) are described below.

On to `C[N+](C)(C)CCCCC(=O)[O-]` [NNN-trimethyl-5-aminovalerate, 5-(trimethylammonio) pentanoate], for which the “frequencies of spontaneous IPSCs (spIPSCs) in parvalbumin-positive interneurons” value in experiment [1] is listed as “increase”. Moreover, the “T maze: improvement in learning and memory after FMT from young mice” value in experiment [2] (old mice (15-16 months) +ABX+yFMT, 5 mg/kg i.p. 1 h before testing, FIG. 10F) is “abolished”. Further, the “spatial working memory (T maze test)” value is listed as “no additional impairing effects” in experiment [2] (old mice (20-24-month-old)) and “reduced” in experiment [2] (young mice (2-month-old), PBS control). The T maze performance result is “no additional deteriorating effect” in experiment [2] (old mice that had received gut microbiota from old mice (old+ABX+oFMT), FIG. 10F) and “significantly worse” in experiment [2] (young adult mice (8 weeks), versus vehicle, FIG. 10B).
